Measurements published in ChEMBL document CHEMBL1201862, “PubChem BioAssay data set” (2004).
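All cell lines were grown in 96-well plates and treated with compound for 48 hours. Abbreviation: GI50, concentration required for 50% inhibition of growth.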 Calls of active or inactive are those of the source. No stated cut-off is given here; in the data, active = GI50 up to about 1.1 µM and inactive = higher.

How the values were obtained:
Assay in all cases: inhibition of tumour cell growth, NCI panel, 48 h
[1] = test system: HOP-92
[2] = test system: BT-549
[3] = test system: NCI/ADR-RES
[4] = test system: UACC-257
[5] = test system: Malme-3M
[6] = test system: UACC-62
[7] = test system: SF-268
[8] = test system: M14
[9] = test system: CAKI-1
[10] = test system: SK-MEL-28
[11] = test system: NCI-H23
[12] = test system: SNB-75
[13] = test system: CCRF-CEM
[14] = test system: SW-620
[15] = test system: KM12
[16] = test system: RPMI-8226
[17] = test system: SNB-19
[18] = test system: HCT-15
[19] = test system: NCI-H460
[20] = test system: K562

Measured: GI50

C#CCOC(=O)C(N)CCSC (stereo unspecified)
inactive: [1] > 100 µM | [2] > 100 µM | [3] > 100 µM | [4] > 100 µM | [5] > 100 µM | [6] > 100 µM | [7] > 100 µM | [8] > 100 µM | [9] > 100 µM | [10] > 100 µM | [11] > 100 µM | [12] > 100 µM | [13] > 100 µM | [14] > 100 µM | [15] > 100 µM | [16] > 100 µM

CCCC#CC(O)(C(=O)OC1CCN(C)CC1)C1CCCCC1 (stereo unspecified)
inactive: [1] 85.7 µM | [2] 88.7 µM | [3] > 100 µM | [17] > 100 µM | [4] 46.6 µM | [5] > 100 µM | [6] > 100 µM | [7] > 100 µM | [8] 58.6 µM | [9] > 100 µM | [19] > 100 µM | [10] > 100 µM | [11] > 100 µM | [12] 57 µM | [13] > 100 µM | [20] > 100 µM | [14] > 100 µM | [15] > 100 µM | [16] > 100 µM
> 100 µM: [18]

CCOC1OC(CO[Si](C)(C)C(C)(C)C)C(O)CC1n1ccc(=O)[nH]c1=O (stereo unspecified)
inactive: [1] 85.7 µM | [2] > 100 µM | [3] > 100 µM | [17] > 100 µM | [4] > 100 µM | [5] > 100 µM | [6] > 100 µM | [7] 30.8 µM | [8] 26.8 µM | [9] 56.4 µM | [19] 81.3 µM | [10] 61.4 µM | [11] > 100 µM | [12] > 100 µM | [20] 31.9 µM | [14] 23.2 µM | [15] 88.7 µM | [16] 49.8 µM
35.6 µM: [18]

Cn1c([N+](=O)[O-])cnc1CN1CCN(CCO)CC1
> 100 µM: [18]
inactive: [1] > 100 µM | [2] > 100 µM | [3] > 100 µM | [17] > 100 µM | [4] > 100 µM | [5] > 100 µM | [6] > 100 µM | [7] > 100 µM | [8] > 100 µM | [9] > 100 µM | [19] > 100 µM | [10] > 100 µM | [11] > 100 µM | [12] > 100 µM | [13] > 100 µM | [20] > 100 µM | [14] > 100 µM | [15] > 100 µM | [16] > 100 µM

CC1(CC(=O)O)OC2CCCCCC2O1.NCc1ccccc1 (stereo unspecified)
> 100 µM: [18]
inactive: [1] 51.4 µM | [2] > 100 µM | [3] > 100 µM | [17] > 100 µM | [4] 53.5 µM | [5] > 100 µM | [6] > 100 µM | [7] > 100 µM | [8] > 100 µM | [9] > 100 µM | [19] > 100 µM | [10] > 100 µM | [11] > 100 µM | [12] 99.3 µM | [13] 34.2 µM | [20] 57.8 µM | [14] > 100 µM | [15] 64.6 µM | [16] 31.9 µM

CCOC(=O)/C(=C\NCC(OCC)OCC)c1nc2ccccc2[nH]1
inactive: [1] 35.6 µM | [2] 22.4 µM | [3] 2.02 µM | [17] 67.3 µM | [4] 25.1 µM | [5] 25.8 µM | [6] 16.3 µM | [7] 32.6 µM | [8] 36.1 µM | [9] 38.9 µM | [19] 23.1 µM | [10] 26.8 µM | [11] 21.4 µM | [12] 22.2 µM | [13] 33.3 µM | [20] 22.8 µM | [14] 41.4 µM | [15] 32.1 µM | [16] 18.7 µM
10 µM: [18]

CC(C)(C)[Si](C)(C)Oc1ccc(C2CNC(=O)C23CCC(=O)N3Cc2ccccc2)cc1 (stereo unspecified)
12.8 µM: [18]
inactive: [1] 17.1 µM | [2] 15.5 µM | [3] 12.8 µM | [17] 15 µM | [4] 12.4 µM | [5] 18.2 µM | [6] 15.2 µM | [7] 12.6 µM | [8] 16.4 µM | [9] 19.7 µM | [19] 7.14 µM | [11] 11.4 µM | [12] 17.8 µM | [13] 17.6 µM | [20] 7.24 µM | [14] 15.1 µM | [15] 15.8 µM | [16] 4.15 µM

CC(C)(C)n1c(=O)n2n(c1=O)Cc1cccc3cccc(c13)C2
inactive: [1] 28.1 µM | [2] 31.8 µM | [3] 14.4 µM | [17] 25.6 µM | [4] 22.6 µM | [5] 14.2 µM | [6] 24 µM | [7] 14.5 µM | [8] 18.4 µM | [9] 15.1 µM | [19] 10.7 µM | [10] 21.7 µM | [11] 25.6 µM | [13] 4.31 µM | [20] 10.3 µM | [14] 17 µM | [15] 14.7 µM | [16] 14 µM
18.5 µM: [18]
active: [12] 0.834 µM

COC(=O)C1=C(O)C(C(=O)OC)[C@]2(O)[C@H](C(=O)OC)[C@H]1C[C@@H](c1ccc(OC)cc1)[C@H]2C(=O)OC (stereo partly specified)
21.9 µM: [18]
inactive: [1] 59.7 µM | [2] 30.8 µM | [3] 23.8 µM | [17] 29.4 µM | [4] 24.7 µM | [5] 17.7 µM | [6] 12.1 µM | [7] 19.6 µM | [8] 23.8 µM | [9] 19.5 µM | [19] 17.7 µM | [10] 30.4 µM | [11] 23.6 µM | [12] 27.9 µM | [20] 15.5 µM | [14] 17.7 µM | [15] 19.5 µM | [16] 12.4 µM

CC(C)(C)c1cc(OCc2nnc3sc(-c4ccc(Cl)cc4)nn23)c(Cl)cc1OCc1nnc2sc(-c3ccc(Cl)cc3)nn12
active: [1] 0.895 µM
3.31 µM: [18]
inactive: [2] 4.7 µM | [3] 2.01 µM | [17] 3.59 µM | [4] 11.5 µM | [5] 2.93 µM | [6] 4.45 µM | [7] 6.97 µM | [8] 3.06 µM | [9] 2.3 µM | [19] 3.06 µM | [10] 3.89 µM | [11] 4.94 µM | [12] 2.19 µM | [20] 1.95 µM | [14] 3.13 µM | [15] 2.47 µM | [16] 3.56 µM

CCOC(=O)c1[nH]c2cccc3c2c1CC[C@H](NC(=O)C(F)(F)F)C3=O
inactive: [1] 22.6 µM | [2] 40.4 µM | [3] 54 µM | [17] 15.8 µM | [4] 76.6 µM | [5] > 100 µM | [7] 37.1 µM | [8] 95.5 µM | [9] 13.9 µM | [19] 53.6 µM | [11] 70.6 µM | [12] 24.3 µM | [13] > 100 µM | [20] 45.8 µM | [14] 76.7 µM | [15] 61.8 µM | [16] > 100 µM
> 100 µM: [18]
active: [10] < 0.01 µM

N#C[BH2-][n+]1cn(C2CC(O)C(COP(=O)(O)OC3CC(n4cnc5c(=O)[nH]c(N)nc54)OC3CO)O2)c2nc(N)[nH]c(=O)c21 (stereo unspecified)
> 100 µM: [18]
inactive: [1] > 100 µM | [2] 6.25 µM | [3] > 100 µM | [17] > 100 µM | [4] > 100 µM | [5] > 100 µM | [6] > 100 µM | [7] > 100 µM | [8] > 100 µM | [9] > 100 µM | [19] > 100 µM | [10] > 100 µM | [11] > 100 µM | [12] > 100 µM | [13] 20.5 µM | [14] > 100 µM | [15] > 100 µM

Cc1[nH]c2ncn(/N=C/c3ccccc3)c(=N)c2c1Cc1ccccc1
inactive: [1] 42.4 µM | [2] > 100 µM | [3] > 100 µM | [17] > 100 µM | [4] 75.3 µM | [6] 58.9 µM | [7] > 100 µM | [8] > 100 µM | [9] > 100 µM | [19] > 100 µM | [10] > 100 µM | [11] > 100 µM | [12] > 100 µM | [13] > 100 µM | [20] > 100 µM | [14] > 100 µM | [15] 75.7 µM | [16] > 100 µM
> 100 µM: [18]

CCCCc1ccc(Nc2ncc3ncn(COCCO)c3n2)cc1
34.9 µM: [18]
inactive: [1] 25.8 µM | [2] 36.1 µM | [3] 29 µM | [17] 44.3 µM | [4] 27.9 µM | [5] 23.1 µM | [6] 25.6 µM | [7] 40.9 µM | [8] 21.5 µM | [9] 49.1 µM | [19] 22.4 µM | [11] 27.7 µM | [12] 24.8 µM | [13] 20.8 µM | [20] 14 µM | [14] 47.9 µM | [15] 27.3 µM | [16] 16.4 µM

C[C@]12C[C@H](c3ccccc3)Nc3ccccc3N1C(c1ccccc1)=NO2
inactive: [1] 30.1 µM | [2] 30.5 µM | [3] 41.1 µM | [17] > 100 µM | [4] 81.5 µM | [5] 44.3 µM | [6] 85.1 µM | [7] > 100 µM | [8] 49.2 µM | [9] 64.3 µM | [19] 49.7 µM | [11] 62.1 µM | [12] 51.3 µM | [13] 67.6 µM | [20] 33.8 µM | [14] > 100 µM | [15] 61 µM | [16] 47.2 µM
67.9 µM: [18]
